Experimental data published in PMC9023544, “Ketone-selenoesters as potential anticancer and multidrug resistance modulation agents in 2D and 3D ovarian and breast cancer in vitro models” (Scientific Reports, 2022).
Where two headings read alike, the source gives them in different places.

Key:
HOC = assay: Oxidation stress (ROS), Muse Oxidative Stress Kit; assay type: cell-based, human; details: 1 µM (DMSO 5% V/V), 24 h
Method: Selenoesters (K3, K4, K7) were tested for their ability to generate reactive oxygen species (ROS). HOC was exposed to selenoesters in concentration of 1 µM for 24 h. DMSO (5% V/V) was used as a positive control. The required volume of DMSO (1% V/V) was added to untreated cells. ROS are essential biomolecules in cellular regulation as a part of the defence mechanisms. On the other hand, their participation in cell signalling may affect apoptosis and other death pathways. In the assay, dihydroethidium (DHE) reacts with superoxide anions by forming DNA-binding fluorophore ethidium bromide. Based on fluorescence, the cell population can be distinguished into ROS negative and ROS positive cells containing oxygen radicals.
To determine the oxidation stress potential of selected selenoesters, HOC were seeded into 24-well plates at a density 2 × 10^5 cells/mL for 24 h according to the above mentioned procedure. Afterwards, the plates were washed 1 ×with PBS and fresh DMEM medium containing compounds K3, K4, K7 (final concentration—1 µM) was added for 24 h, except for the positive and negative control. […] as the oxidation stress inductor. After incubation, the cells were washed 1× with PBS and released from the surface by using a trypsin–EDTA solution. After trypsin inhibition by medium addition, the cell suspensions were centrifuged (100×g, 5 min, 25 °C), supernatants were removed, and cell pellets resuspended in 1× assay buffer. All reagents were prepared immediately before use. Afterwards, 10 µL of the cell suspension were mixed with 190 µL of working solution (Muse Oxidative stress reagent) and stained for 30 min at 37 °C. Subsequently, the […] were analysed by Guava Muse Cell Analyzer. Oxidation stress detection was performed following the instructions provided by the manufacturer.

[1] = test system: prostate metastatic cancer line; design: method as in PMID 21549092; details: cited from earlier work
[2] = test system: HOC (human parental ovarian adenocarcinoma, A2780); assay: Cytotoxic activity, 2D, resazurin, 72 h; assay type: cell-based; details: for IC50: 2D, 72 h, mean ± SEM, n=3, read-out: HOC IC50
Method: (§1) The cytotoxic potential of selenoesters was tested on several cancer cell lines—HOC (human parental ovarian adenocarcinoma, HOC, A2780, Sigma-Aldrich), HOC/ADR (sub-line resistant to Adriamycin, A2780/ADR, Sigma-Aldrich), MCF-7 (human breast adenocarcinoma, ATCC®, HTB-22TM), MCF-7/PAX (resistant sub-line established by gradual adaptation of parental cells to increased concentration of paclitaxel; kindly provided by Division of Cell and Molecular Biology, Third Faculty of Medicine, Charles University, Czech Republic) and on one non-cancerous cell line—HEK293 (human embryonic kidney cell line, Leibniz Institute, DSMZ-German Collection of Microorganisms and Cell Cultures GmbH). All mentioned cell lines were authenticated using short tandem repeat (STR) profiling. Cell lines were cultivated in DMEM medium (10% FBS, 1× antibiotic antimycotic solution), except for HEK293 cell line which was cultivated without antibiotics. In case of the resistant cell lines, the medium was supplemented with a required concentration of cytostatics to maintain resistance (HOC/ADR—100 nM Adriamycin; MCF-7/PAX—300 nM paclitaxel). All cells were cultivated in a CO2 incubator (5% CO2, 37 °C, Thermo Fisher Scientific).
(§2) For the experiment, the cells at passage number 5–20 were seeded at a 1 × 10^5 cells/mL concentration into 96-well plates to 100 µL final volume. The final concentration range of the compounds was 0.63–20 µM. After an incubation of 72 h, the plates were washed 1× with PBS and resazurin solution (0.03 mg/mL in 1× PBS) was added. After 1 h of incubation, the fluorescence signal was recorded (ex./em. 560/590 nm).
(§3) The selectivity index (SI) was determined as the ratio of IC50 value for the non-cancerous cells to IC50 for the cancer cell line. For resistant cell lines, the collateral sensitivity (CS) was calculated as the ratio of IC50 value in sensitive tumour cells to IC50 in the resistant cancer cell line. In both cases, the selectivity is considered as: (1) strongly selective when SI or CS value is above 6, (2) moderately selective when SI or CS is between 3 and 6, (3) slightly selective when SI or CS is between 1 and 3 and (4) non-selective when SI or CS is less than 1[23].

[3] = test system: MCF-7 (human breast adenocarcinoma); assay: Cytotoxic activity, 2D, resazurin, 72 h; assay type: cell-based
Method: as §1, §2, §3

[4] = test system: HOC/ADR (sub-line resistant to Adriamycin, A2780/ADR); assay: Cytotoxic activity, 2D, resazurin, 72 h; assay type: cell-based, human
Method: as §1, §2, §3

[5] = test system: MCF-7/PAX (paclitaxel-resistant sub-line); assay: Cytotoxic activity, 2D, resazurin, 72 h; assay type: cell-based, human
Method: as §1, §2, §3

[6] = test system: HEK293 (human embryonic kidney cell line); assay: Cytotoxic activity, non-cancerous cell line, resazurin, 72 h; assay type: cell-based; details: Homo sapiens, HEK293; 72 h, mean ± SEM, n=3
Method: as §1, §2, §3

HOC/ADR = assay: Sensitization of MDR cell line to Adriamycin; assay type: cell-based, human; details: IC50 of Adriamycin / IC50 of Adriamycin with IC10 dose of compound
Method: To determine the sensitization potential of compounds, HOC/ADR and MCF-7/PAX were used. Based on the cytotoxic potential of the compounds against several cancer and non-cancerous cell lines (Table 1), the concentrations of applied compounds were adjusted. IC10 values was considered as the concentrations, which should not decrease the cell viability under 90%. After the addition of compounds, Adriamycin (concentration range 0.1–20 µM) and paclitaxel (concentration range 0.1–10 µM) were added to HOC/ADR and MCF-7/PAX, respectively. The sensitization potential of the compounds was determined as the ratio of the IC50 of cytostatic agent (Adriamycin/paclitaxel) to the IC50 of cytostatic agent affected by the compound in concentration corresponding to the IC10 value. Fold change greater than 1 indicated synergic effect of cytostatic agent and the tested compound.
After that, the plates were washed 1× with PBS and fresh DMEM medium supplemented with tested compounds at final concentration corresponding their IC10 value was added, except for positive control wells. Subsequently, Adriamycin (concentration range 0.1–20 µM) or paclitaxel (concentration range 0.1–10 µM) was added to the appropriate cell line for 72 h. After incubation, the cells were washed 1× with PBS and the resazurin solution (0.03 mg/mL) was added to evaluate the cell viability as described above. IC50 values of cytostatics were calculated for both the control and compounds; a fold change was counted up. When this fold change is higher than 1 indicates a synergism between the tested cytostatic agent and the compound, while a fold change lower than 1 means an antagonism. Fold change=IC50value of cytostatic treated cells only/IC50value of cytostatic treated cells in addition of the compound

SMILES: C[S+](C)[O-] [DMSO (5% V/V), dimethyl sulfoxide, reference compound]
- ROS(+) cells (HOC): 68.7 ± 1.9 %
- ROS(−) cells (HOC): 31.8 ± 2.3 %

SMILES: CC(=O)O[C@@]12CO[C@@H]1C[C@H](O)[C@@]1(C)C(=O)[C@H](O)C3=C(C)[C@@H](OC(=O)[C@H](O)[C@@H](NC(=O)OC(C)(C)C)c4ccccc4)C[C@@](O)([C@@H](OC(=O)c4ccccc4)[C@H]21)C3(C)C [docetaxel]
- growth inhibition [1]: 22%

SMILES: O=[Se]([O-])[O-].[Na+].[Na+] [sodium selenite]
- growth inhibition [1]: 24%

SMILES: CC(=O)C[Se]C(=O)c1cccs1 [K1]
- IC50 [2]: 0.8 µM
- IC50 ([2]; Homo sapiens, A2780, 72 h): < 1 µM
- SI HEK293/HOC ([2]; IC50 HEK293 / IC50 HOC): 1.2 ± 0.1
- IC50 ([3]; Homo sapiens, MCF7, 2D, 72 h, mean ± SEM, n=3, read-out: MCF-7 IC50): 1.6 ± 0.1 µM
- SI HEK293/MCF-7 ([3]; IC50 HEK293 / IC50 MCF-7): 0.6 ± 0.1
- IC10 ([4]; Homo sapiens, A2780 ADR, 72 h, HOC/ADR, concentration that should not decrease viability under 90%, read-out: IC10 of compounds): 1.5 µM
- IC50 ([4]; Homo sapiens, A2780 ADR, 2D, 72 h, mean ± SEM, n=3, read-out: HOC/ADR IC50): 2.3 µM
- SI HEK293/HOC/ADR ([4]; IC50 HEK293 / IC50 HOC/ADR): 0.4 ± 0.0
- CS (collateral sensitivity index) ([4]; IC50 HOC / IC50 HOC/ADR): 0.4 ± 0.0
- IC50 ([5]; Homo sapiens, MCF7, 2D, 72 h, mean ± SEM, n=3, read-out: MCF-7/PAX IC50): 2.2 ± 0.2 µM
- SI HEK293/MC7-7/PAX ([5]; IC50 HEK293 / IC50 MCF-7/PAX): 0.4 ± 0.0
- CS (collateral sensitivity index) ([5]; IC50 MCF-7 / IC50 MCF-7/PAX): 0.7 ± 0.1
- IC50 [6]: 1 ± 0.1 µM
- Fold change (HOC/ADR): (1.3 ± 0.1)×
